# According to patent US20260337177A1, “TEAD CORE INHIBITORS FOR CANCER THERAPEUTICS” (University of Florida Research Foundation, Incorporated, priority 2023, published 2026):
# How the values were obtained:
# NCI-H226 cells = experiment: NCI-H226 cell growth inhibition (CCK-8, 3 days); assay type: cell-based; conditions: Homo sapiens, NCI-H226, 72 h, NF2-deficient mesothelioma, read-out: Antiproliferative IC50, NCI-H226
# Procedure: The inhibitory effects of compound 22 were assessed against YAP TEAD related NF2-deficient mesothelioma cell NCI-H226 and triple negative breast cancer cell Hs578T. The growth inhibition ratio was measured using a CCK-8 assay after 3 days of treatments.
# TEAD2-YBD C380S = TEAD2-YBD C380S (Homo sapiens, UniProt Q15562, C380S); experiment: Intact protein mass spectrometry, TEAD2-YBD C380S variant; assay type: binding; conditions: 15 hours
# From the text: To substantiate the covalent interaction between Compound 22 and TEAD2-YBD, intact mass spectrometry was employed to monitor the protein's mass change upon binding with the compound.
# Human TEAD2-YBD (217-447) (TEAD2_HUMAN, UniProtKB Q15562) was expressed and purified as previously described.^79 To eliminate endogenous palmitoylation, Cys380Ser mutant (TEAD2-C380S) was generated and purified using the same protocol. [00392]hTEAD2 was expressed, purified, and deacylated as reported.^52 Briefly, the yap-binding domain (YBD) of […] was cloned in pET28a vector with the N terminal 6x His tag. The recombinant protein was induced at 16 ° C using 0.2 mM isopropyl bD-1-thiogalactopyranoside (IPTG) for 10 h for overexpression in Escherichia coli strain BL2 (DE3) CodonPlus competent cells (Invitrogen). Then cells were harvested, followed by lysis and the supernatant was loaded onto the HisTrap FF column (GE Healthcare). The hTEAD4-YBD was eluted with elution buffer (50 mM Hepes 8.0, 300 mM NaCl, 10% Glycerol, 1 mM TCEP, 125 mM imidazole). To eliminate the endogenous fatty acid, the protein was incubated with 0.2 mM hydroxylamine for 2 h and further purified through gel filtration chromatography in the final buffer (25 mM Hepes pH 8.0, 100 mM NaCl, 1 mM TCEP, and 5% glycerol). Collected fractions were concentrated to 5 mg/mL and flash frozen for further use. […]
# Huh7 cells [1] = experiment: Colony formation (clonogenic) assay, Huh7; assay type: cell-based; conditions: Homo sapiens, Huh-7, 48 h, read-out: Colony formation, rate of inhibition, Huh7
# Procedure: (§1) The ability of compound 22 to inhibit the proliferation of liver cancer cell lines Huh7 and HepG2 was further assessed using a clonogenic assay.
# (§2) Huh7 or HepG2 (500 cells/well) were plated into 6 well plates (500 cells per well) and treated with 0 or 5 μM compound 22. Colonies were grown in the absence of soft agar for 2 weeks in a humidified atmosphere of 5% C02 at 37 ° C Crystal violet blue solution (Sigma) was used to stain the colonies for one hour and fixed in methanol followed by counting under a microscope. Triplicate wells were used for each cell line and three independent experiments were performed.
# HepG2 cells [2] = experiment: Colony formation (clonogenic) assay, HepG2; assay type: cell-based; conditions: Homo sapiens, 48 h, read-out: Colony formation, rate of inhibition, HepG2
# Procedure: as §1, §2
# Huh7 cells [3] = experiment: Cell cycle analysis by flow cytometry, Huh7; assay type: cell-based, human; conditions: 5 and 10 μM, 48 hours
# Procedure: (§3) To study the potential mechanistic pathways responsible for cell proliferation inhibition by compound 22, the change of cell cycle in Huh7 and HepG2 liver cancer cell lines was evaluated. DNA-based cell cycle analysis was performed using flow cytometry. […] To explore whether compound 22 also induces G1 phase arrest in HepG2 cells similar to its effects on Huh7 cells, parallel investigations were performed. […] However, the impact of 22 on inducing G1 phase arrest was less pronounced in HepG2 cells compared to Huh7 cells.
# (§4) For cell cycle analysis, cells were fixed with pre-cold 70% ethanol for 30 minutes. Then the cells were washed with PBS and stained with propidium iodide working solution for 30 minutes in the dark. The stained cells were analyzed by flow cytometry. Cell cycle distribution was analyzed using FlowJo_V10 software. For each experiment, 20000 events per sample were recorded. Percentages of cells in G0/G1, S and G2/M phases were calculated and shown in DNA histograms.
# HepG2 cells [4] = experiment: Cell cycle analysis by flow cytometry, HepG2; assay type: cell-based, human; conditions: 5 and 10 μM
# Procedure: as §3, §4
# Huh7 cells [5] = experiment: Apoptosis by Annexin V/PI flow cytometry, Huh7; assay type: cell-based, human; conditions: 48 h
# Procedure: In order to gain deeper insights into the underlying anticancer mechanism of compound 22, experiments were performed to validate whether the induction of G1 phase cells by compound 22 was linked to apoptosis. To achieve this, the cells treated with compound 22 were subjected to PI and FITC-annexin V staining to detect apoptotic cells. […] The proportions of total apoptosis including the early stage apoptosis and the later stage of apoptosis were 66.8%, and 83.5%, respectively, at concentrations of 5 and 10 μM. This trend was similarly observed in the case of HepG2 cells. […] The impact of compound 22 on inducing cell apoptosis was less pronounced in HepG2 cells compared to Huh7 cells, aligning with the outcomes of the cell cycle analysis, providing further coherence to the observed effects of compound 22 on these cell lines.
# Apoptosis was detected using an Annexin V-FITC apoptosis detection kit (Thermo Fisher Scientific) following the manufacturer’ instructions. Briefly, about 50000 cells were suspended in 500 μl of binding buffer. The cells were incubated with 5 μl FITC-conjugated Annexin V for 15 minutes and incubated with 5 μl propidium Iodide staining solution for 15 minutes in darkness at room temperature. Cell apoptosis was then analyzed by flow cytometry using a FACSCalibur flow cytometer (Becton Dickinson, San Jose, CA).
# HepG2 cells [6] = experiment: Apoptosis by calcein AM and ethidium homodimer-1 staining, HepG2; assay type: cell-based, human
# Huh7 cells [7] = experiment: Apoptosis by calcein AM and ethidium homodimer-1 staining, Huh7; assay type: cell-based, human
# Sequence of TEAD2-YBD C380S (Q15562 217-447 C380S): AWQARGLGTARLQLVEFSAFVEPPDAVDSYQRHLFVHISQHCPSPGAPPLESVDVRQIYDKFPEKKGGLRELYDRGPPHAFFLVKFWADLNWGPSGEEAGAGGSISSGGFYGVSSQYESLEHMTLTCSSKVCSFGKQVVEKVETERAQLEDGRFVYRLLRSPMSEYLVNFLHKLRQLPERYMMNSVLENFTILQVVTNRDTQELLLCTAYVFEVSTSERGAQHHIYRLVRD
compound,measurement,setting,value
"O=C(CCl)c1c[nH]c2cc(Cl)c(OCc3cccc(C(F)(F)F)c3)cc12 [Compound 22, 2-chloro-1-(6-chloro-5-((3-(trifluoromethyl)benzyl)oxy)-1H-indol-3-yl)ethan-1-one]",IC50,NCI-H226 cells,0.4 µM
same,Mass shift of TEAD2-YBD C380S variant,TEAD2-YBD C380S,absence of a mass shift
same,inhibition at 5 µM,Huh7 cells [1],62.5%
same,inhibition at 5 µM,HepG2 cells [2],59.5%
same,"Percentage of cells in G1 phase, Huh7",Huh7 cells [3]; control group 36.4%,58.2%
same,"Proportion of cells in S/G2 phases, Huh7",Huh7 cells [3],distinct decrease
same,"Accumulation in G1 phase, HepG2",HepG2 cells [4],accumulation of HepG2 cells in the G1 phase
same,"Proportion of total apoptosis (early + late), Huh7",Huh7 cells [5]; 5 μM,66.8%
same,"Proportion of total apoptosis (early + late), Huh7",Huh7 cells [5]; 10 μM,83.5%
same,HepG2 cell apoptosis,HepG2 cells [6],promotes HepG2 cell apoptosis
same,Huh7 cell apoptosis,Huh7 cells [7],promotes Huh7 cell apoptosis
